We go through 48 compounds from PMC6172212, “Structural Analysis of Inhibitor Binding to CAMKK1 Identifies Features Necessary for Design of Specific Inhibitors” (Scientific Reports, 2018).

Counter-ions that a name gives are not always drawn.

The target in one test is T1, CAMKK1 kinase domain (CAMKK1-KD, Gln124-Lys411) (Homo sapiens, UniProt Q8N5S9).
T1 construct: The kinase domain (Gln124 to Lys411) was amplified using the primers; 6xHis (TEV-cleavable) (N, cleaved yes); made in house; host or cells: Escherichia coli BL21(DE3)-R3 co-expressing λ-phosphatase
T1 sequence (Q8N5S9 124-411): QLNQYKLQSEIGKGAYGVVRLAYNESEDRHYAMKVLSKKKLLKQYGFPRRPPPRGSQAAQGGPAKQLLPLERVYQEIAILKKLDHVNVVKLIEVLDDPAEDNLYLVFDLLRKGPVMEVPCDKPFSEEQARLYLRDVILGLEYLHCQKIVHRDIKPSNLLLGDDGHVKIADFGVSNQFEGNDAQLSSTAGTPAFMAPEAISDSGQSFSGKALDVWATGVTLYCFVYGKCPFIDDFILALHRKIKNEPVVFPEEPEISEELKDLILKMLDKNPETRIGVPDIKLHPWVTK
The test can be described thus: Differential scanning fluorimetry (DSF) screen of a kinase inhibitor library against CAMKK1-KD. The format is binding. The conditions noted are these: DSF, 1 μM CAMKK1-KD, compound 10 µM; mean and standard error from triplicate measurements. How it is done:
DSF measurements were made in a 384-well plate.
The compounds, previously solubilized in DMSO, were used at 10 µM final concentration and 0.1% DMSO. Plates were sealed using optically clear films and transferred to a QuantStudio 6 qPCR instrument (Applied Biosystems). […] Protein in 0.1% DMSO was used as a reference.
Background: In DSF a fluorescence change marks the thermal transition of the protein.
Regarding `COc1cc(N2CCC(N)CC2)ccc1Nc1ncc(Cl)c(-c2c[nH]c3ccccc23)n1` [AZD3463], the “ΔTm (°C) CAMKK1” value turned out to be 11.5 ± 0.3 °C.

Staying with this test, now noted: DSF, 1 μM CAMKK1-KD, compound 10 µM; mean and standard error from triplicate measurements; read-out: ΔTm (°C) CAMKK1.
With `CC[C@@H]1C(=O)N(C)c2cnc(Nc3ccc(C(=O)N[C@H]4CC[C@H](N5CCN(CC6CC6)CC5)CC4)cc3OC)nc2N1C(C)C` [Volasertib (BI 6727), Volasertib], the shift in melting temperature (ΔTm) at 10 µM is 7.7 ± 0.8 °C.

The test is the same for the next values; noted with them: DSF, 1 μM CAMKK1-KD, compound 10 µM; supplement.
Take `C=CC(=O)Nc1cccc(Nc2nc(Nc3ccc(NC4CN(CCF)C4)cc3OC)ncc2C(F)(F)F)c1` [CNX-2006]: the “Mean ΔTm (°C)” value came out at 4.4 °C.

On to `COc1ccc2c(Oc3ccc(NC(=O)c4c(C)n(CC(C)(C)O)n(-c5ccccc5)c4=O)nc3)ccnc2c1` [AMG-458], for which the “Mean ΔTm (°C)” value is 5.2 °C. Turning to `CS(=O)(=O)c1cccc(CNc2nc(Nc3ccc4c(c3)CCC(=O)N4)ncc2C(F)(F)F)c1` [PF-573228], the “Mean ΔTm (°C)” value was determined as 5.8 °C. Still for that read-out and setting: the same measure for `CS(=O)(=O)O.Cn1cc(C2=C(c3cn(CCCSC(=N)N)c4ccccc34)C(=O)NC2=O)c2ccccc21` [Ro 31-8220 Mesylate]: 3.4 °C; for `Cc1cc(N2CCOCC2)cc2[nH]c(-c3c(NC[C@@H](O)c4cccc(Cl)c4)cc[nH]c3=O)nc12` [BMS-536924]: 3.6 °C. `O=C1Nc2cc(Br)ccc2/C1=C1/Nc2ccccc2/C1=N\O` [BIO]: the “Mean ΔTm (°C)” value was 2.9 °C. Same read-out and setting: the result for `COc1cc2c(Nc3ccc(NC(=O)c4ccccc4)cc3)ncnc2cc1OCCCN1CCOCC1` [ZM 447439] reads 2.0 °C. As for `O=C1NC(=O)/C(=C/c2ccc(-c3ccc(F)cc3O)o2)S1` [AS-252424], the “Mean ΔTm (°C)” value amounted to 4.8 °C. In the case of `COc1ccccc1-c1cc(Nc2cccc(CS(N)(=O)=O)c2)ncn1` [LDC000067], the “Mean ΔTm (°C)” value was 4.2 °C.

Take `CN(c1ncccc1CNc1nc(Nc2ccc3c(c2)CC(=O)N3)ncc1C(F)(F)F)S(C)(=O)=O` [PF-562271]: the “Mean ΔTm (°C)” value was found to be 5.6 °C. The same measure, in the same setting: the result for `COc1cc(C(=O)NC2CCN(C)CC2)ccc1Nc1ncc2c(n1)N(C1CCCC1)CC(F)(F)C(=O)N2C` [Ro3280] reads 4.8 °C; that for `O=C(NCc1ccccc1)c1csc(Nc2ccncn2)n1` [Thiazovivin], 3.0 °C; that for `O=C1NC(=O)C(c2ccccc2[N+](=O)[O-])=C1Nc1ccc(O)c(Cl)c1` [SB415286], 2.7 °C. As for `Cc1cnc(Nc2ccc(N3CCN(C)CC3)cc2)nc1Nc1cccc(S(=O)(=O)NC(C)(C)C)c1` [TG101209], the “Mean ΔTm (°C)” value was found to be 3.6 °C. As to `O=C1Nc2ccc(I)cc2/C1=C/c1cc(Br)c(O)c(Br)c1` [GW5074], the “Mean ΔTm (°C)” value was found to be 5.4 °C. On the same count and under the same terms, the same measure for `O=C(NCc1cccc(O)c1)Nc1nc(-c2ccncc2)cs1` [RKI-1447]: 5.6 °C; for `O=C1NCCc2[nH]c(-c3ccncc3)cc21` [PHA-767491]: 3.0 °C. Same read-out and setting: the same measure for `CC(C)CCN1c2nc(Nc3cc(F)c(O)c(F)c3)ncc2N(C)C(=O)C1C` (stereo not drawn) [BI-D1870]: 3.6 °C. Turning to `Cc1[nH]nc2ccc(-c3cncc(OC[C@@H](N)Cc4ccccc4)c3)cc12` [A-674563], the “Mean ΔTm (°C)” value is 5.7 °C. The same measure, in the same setting: the result for `CNC(=O)c1ccccc1Nc1nc(Nc2ccc(N3CCOCC3)cc2OC)ncc1Cl` [TAE226 (NVP-TAE226)] reads 3.0 °C; that for `CN1CCC(CNc2ccc3ncc(-c4cccc(OC(F)(F)F)c4)n3n2)CC1` [SGI-1776 free base], 3.4 °C.

`CN(C)CCCn1cc(C2=C(c3c[nH]c4ccccc34)C(=O)NC2=O)c2ccccc21` [GF109203X]: the “Mean ΔTm (°C)” value was found to be 2.4 °C.

The test is the same for the next values; noted with them: DSF, 1 μM CAMKK1-KD, compound 10 µM; supplement; read-out: Mean ΔTm (°C).
Consider `C=CC(=O)Nc1cccc(Nc2nc(Nc3ccc(N4CCN(C(C)=O)CC4)cc3OC)ncc2C(F)(F)F)c1` [CO-1686 (AVL-301)], for which the shift in melting temperature (ΔTm) at 10 µM amounted to 3.4 °C. As to `CN1CCN(C2CCN(C(=O)Nc3cc(Oc4ccc(NC(=O)C5(C(=O)Nc6ccc(F)cc6)CC5)c(F)c4)ccn3)CC2)CC1` [Golvatinib (E7050), Golvatinib], the thermal shift (ΔTm) at 10 µM worked out at 5.5 °C. For the compound `CO[C@@H](C(=O)N1Cc2n[nH]c(NC(=O)c3ccc(N4CCN(C)CC4)cc3)c2C1)c1ccccc1` [Danusertib (PHA-739358), Danusertib], the shift in melting temperature (ΔTm) at 10 µM is 3.8 °C. With `Cc1[nH]c(/C=C2\C(=O)Nc3ccccc32)c(C)c1CCC(=O)O` [TSU-68 (SU6668)], the ΔTm at 10 µM was determined as 4.9 °C.

`Cc1ncc(-c2ccnc(Nc3ccc(S(C)(=O)=O)cc3)n2)n1C(C)C` [AZD5438]: the shift in melting temperature (ΔTm) at 10 µM is 3.4 °C.

For `COc1ccc(Cl)c(Nc2nc3ccccc3nc2NS(=O)(=O)c2cccc(NC(=O)C(C)(C)N)c2)c1` [XL147], the thermal shift (ΔTm) at 10 µM is 4.1 °C. As for `O=C(Nc1c[nH]nc1-c1nc2ccc(CN3CCOCC3)cc2[nH]1)NC1CC1` [AT9283], the ΔTm at 10 µM was found to be 5.6 °C.

`Cc1nc(Nc2[nH]nc3c2CN(C(=O)N[C@H](CN(C)C)c2ccccc2)C3(C)C)c2sccc2n1` [PF-3758309]: the ΔTm at 10 µM stood at 4.6 °C. With `Cc1[nH]c(/C=C2\C(=O)Nc3ccc(S(=O)(=O)Cc4c(Cl)cccc4Cl)cc32)c(C)c1C(=O)N1CCC[C@@H]1CN1CCCC1` [PHA-665752], the thermal shift (ΔTm) at 10 µM is 5.2 °C. For `N#CCNC(=O)c1ccc(-c2ccnc(Nc3ccc(N4CCOCC4)cc3)n2)cc1` [CYT387], the ΔTm at 10 µM turned out to be 4.7 °C. With `CCS(=O)(=O)c1cccc(-c2cc(C(=O)NC3CCN(C)CC3)c(C)c3[nH]c4ncc(C)cc4c23)c1` [TAK-901], the ΔTm at 10 µM was 5 °C. The same measure, in the same setting: the same measure for `COc1cc2nccc(Oc3ccc(NC(=O)C4(C(=O)Nc5ccc(F)cc5)CC4)cc3)c2cc1OC` [Cabozantinib malate (XL184), Cabozantinib malate]: 5.2 °C; for `Nc1nccc(Oc2ccc(NC(=O)c3c[nH]cc(-c4ccc(F)cc4)c3=O)cc2F)c1Cl` [BMS-794833]: 4.9 °C.

In the case of `O=c1c(O)c(-c2ccc(O)c(O)c2)oc2cc(O)cc(O)c12` [Quercetin], the ΔTm at 10 µM is 4.9 °C. As to `Cc1nc(N)sc1-c1ccnc(Nc2ccc(N3CCOCC3)cc2)n1` [CYC116], the thermal shift (ΔTm) at 10 µM came out at 2.7 °C. Same read-out and setting: the result for `O=C(NCCCNc1nc(Nc2cccc(NC(=O)N3CCCC3)c2)ncc1I)c1cccs1` [BX-795] reads 5.6 °C; that for `Cc1cc(Nc2cc(N3CCN(C)CC3)nc(/C=C/c3ccccc3)n2)n[nH]1` [ENMD-2076], 2.6 °C. Take `CCN1CCN(Cc2ccc(Nc3ncc(F)c(-c4cc(F)c5nc(C)n(C(C)C)c5c4)n3)nc2)CC1` [LY2835219]: the thermal shift (ΔTm) at 10 µM turned out to be 6.7 °C.

`NC(=O)Nc1cc(-c2cccc(F)c2)sc1C(=O)N[C@H]1CCCNC1` [AZD7762]: the shift in melting temperature (ΔTm) at 10 µM came to 3.6 °C.

The same test, now with this note: read-out: Mean ΔTm (°C).
As for `CC(=O)c1c(C)c2cnc(Nc3ccc(N4CCNCC4)cn3)nc2n(C2CCCC2)c1=O` [Palbociclib (PD-0332991) HCl, Palbociclib], the shift in melting temperature (ΔTm) at 10 µM is 4.4 °C.

With `O=C(Nc1cccc(Cl)c1)Nc1ncc(CCNc2ncnc3ccsc23)s1` [SNS-314 Mesylate], the ΔTm at 10 µM was found to be 4.5 °C.

Staying with this test, now noted: read-out: ΔTm (°C) CAMKK1.
Consider `CCOc1ccn(-c2ccc(F)cc2)c(=O)c1C(=O)Nc1ccc(Oc2ccnc(N)c2Cl)c(F)c1` [BMS-777607], for which the ΔTm at 10 µM was determined as 7.5 ± 0.3 °C. Consider `CN[C@@H]1C[C@H]2O[C@@](C)([C@@H]1OC)n1c3ccccc3c3c4c(c5c6ccccc6n2c5c31)C(=O)NC4` [Staurosporine], for which the ΔTm at 10 µM worked out at 23.7 ± 1.9 °C. As to `Cc1ccc(C(=O)Nc2ccc(CN3CCN(C)CC3)c(C(F)(F)F)c2)cc1C#Cc1cnc2cccnn12` [Ponatinib (AP24534), Ponatinib], the ΔTm at 10 µM is 4.4 ± 3.1 °C.

The ΔTm is the shift of the melting midpoint relative to a reference.
